Measurements as given in US20260130933A1, “PHARMACEUTICAL COMPOSITION FOR PREVENTION OR TREATMENT OF NEPHROPATHY AND/OR DIABETES MELLITUS, COMPRISING ENAVOGLIFLOZIN” (DAEWOONG PHARMACEUTICAL CO., LTD., priority 2022, published 2026).

Experiment: Example 1: phase 3 trial, enavogliflozin 0.3 mg once a day as monotherapy vs placebo for 24 weeks in patients with type 2 diabetes (HbA1c, FPG, C-peptide, body weight, lipids, blood pressure, HOMA, UACR, UGCR, adiponectin, leptin, safety)
Type: in vivo, human
Conditions: for Adiponectin, Mean (SD) / Adiponectin, Median / HOMA-IR, Mean (SD) / HOMA-IR, Median / HOMA-β, Mean (SD) / HOMA-β, Median / Leptin, Mean (SD) / Leptin, Median / UACR, Mean (SD) / UACR, Median / UGCR, Mean (SD) / UGCR, Median / Change from baseline in HOMA-IR, ANCOVA LS mean (SE) / Change from baseline in HOMA-IR, Mean (SD) / Change from baseline in HOMA-IR, Median / Change from baseline in HOMA-β, ANCOVA LS mean (SE) / Change from baseline in HOMA-β, Mean (SD) / Change from baseline in HOMA-β, Median / Change from baseline in UACR, ANCOVA LS mean (SE) / Change from baseline in UACR, Mean (SD) / Change from baseline in UACR, Median / Change from baseline in UGCR, ANCOVA LS mean (SE) / Change from baseline in UGCR, Mean (SD) / Change from baseline in UGCR, Median / Change from baseline in adiponectin, ANCOVA LS mean (SE) / Change from baseline in adiponectin, Mean (SD) / Change from baseline in adiponectin, Median / Change from baseline in leptin, ANCOVA LS mean (SE) / Change from baseline in leptin, Mean (SD) / Change from baseline in leptin, Median / Change from baseline in HOMA-IR, ANCOVA LS mean difference / Change from baseline in HOMA-β, ANCOVA LS mean difference / Change from baseline in UACR, ANCOVA LS mean difference / Change from baseline in UGCR, ANCOVA LS mean difference / Change from baseline in adiponectin, ANCOVA LS mean difference / Change from baseline in leptin, ANCOVA LS mean difference: LOCF, full analysis set; for Adiponectin, Mean (SD) / Adiponectin, Median / HOMA-IR, Mean (SD) / HOMA-IR, Median / HOMA-β, Mean (SD) / HOMA-β, Median / Leptin, Mean (SD) / Leptin, Median / UACR, Mean (SD) / UACR, Median / UGCR, Mean (SD) / UGCR, Median / Change from baseline in HOMA-IR, ANCOVA LS mean (SE) / Change from baseline in HOMA-IR, Mean (SD) / Change from baseline in HOMA-IR, Median / Change from baseline in HOMA-β, ANCOVA LS mean (SE) / Change from baseline in HOMA-β, Mean (SD) / Change from baseline in HOMA-β, Median / Change from baseline in UACR, ANCOVA LS mean (SE) / Change from baseline in UACR, Mean (SD) / Change from baseline in UACR, Median / Change from baseline in UGCR, ANCOVA LS mean (SE) / Change from baseline in UGCR, Mean (SD) / Change from baseline in UGCR, Median / Change from baseline in adiponectin, ANCOVA LS mean (SE) / Change from baseline in adiponectin, Mean (SD) / Change from baseline in adiponectin, Median / Change from baseline in leptin, ANCOVA LS mean (SE) / Change from baseline in leptin, Mean (SD) / Change from baseline in leptin, Median: 0.3 mg; for Change from baseline in HOMA-IR, ANCOVA LS mean difference / Change from baseline in HOMA-β, ANCOVA LS mean difference / Change from baseline in UACR, ANCOVA LS mean difference / Change from baseline in UGCR, ANCOVA LS mean difference / Change from baseline in adiponectin, ANCOVA LS mean difference / Change from baseline in leptin, ANCOVA LS mean difference: 0.3 mg vs placebo
Experimental: When a subject voluntarily gave written consent to participate in this clinical trial, a screening test was conducted. […] However, when the administration of a hypoglycemic agent was interrupted before the clinical trial Visit 1 (screening), at least an 8-week washout period, including the discontinuation period, was required, and during this period, a stable diet and exercise program was followed. Naïve patients were screened without a separate washout period, and the criteria for naïve patients were defined as patients who had not been administered hypoglycemic agents within 24 weeks prior to the date of obtaining written consent. […] In addition, they were instructed to maintain regular exercise and dietary control starting from 8 weeks prior to screening without changing their daily life patterns during the clinical trial period.

OC[C@H]1O[C@@H](c2cc(Cc3ccc(C4CC4)cc3)c(Cl)c3c2CCO3)[C@H](O)[C@@H](O)[C@@H]1O [Enavogliflozin, (2S,3R,4R,5S,6R)-2-(7-chloro-6 (4-cyclopropylbenzyl)-2,3-dihydrobenzofuran-4-yl)-6-(hydroxymethyl)tetrahydro-2H-pyran-3,4,5-triol]
Occurrence rates of adverse events or adverse drug reactions compared to the control (24 weeks, vs placebo): no statistically significant differences
Adiponectin, Mean (SD) (Baseline): 7.79 µg/mL
Adiponectin, Median (Baseline): 6.22 µg/mL
HOMA-IR, Mean (SD) (Baseline): 3.47
HOMA-IR, Median (Baseline): 2.67
HOMA-β, Mean (SD) (Baseline): 46.40
HOMA-β, Median (Baseline): 36.25
Leptin, Mean (SD) (Baseline): 11.16 ng/mL
Leptin, Median (Baseline): 6.94 ng/mL
UACR, Mean (SD) (Baseline): 28.20 g/kg
UACR, Median (Baseline): 10.50 g/kg
UGCR, Mean (SD) (Baseline): 1.42 mg/mg
UGCR, Median (Baseline): 10.11 mg/mg
Adiponectin, Mean (SD) (Week 6): 7.91 µg/mL
Adiponectin, Median (Week 6): 6.67 µg/mL
Change from baseline in HOMA-IR, ANCOVA LS mean (SE) (Week 6): −1.75
Change from baseline in HOMA-IR, Mean (SD) (Week 6): −1.53
Change from baseline in HOMA-IR, Median (Week 6): −0.96
Change from baseline in HOMA-β, ANCOVA LS mean (SE) (Week 6): 3.20
Change from baseline in HOMA-β, Mean (SD) (Week 6): 3.95
Change from baseline in HOMA-β, Median (Week 6): 3.10
Change from baseline in UACR, ANCOVA LS mean (SE) (Week 6): 1.45 g/kg
Change from baseline in UACR, Mean (SD) (Week 6): 3.66 g/kg
Change from baseline in UACR, Median (Week 6): 0.80 g/kg
Change from baseline in UGCR, ANCOVA LS mean (SE) (Week 6): 55.38 mg/mg
Change from baseline in UGCR, Mean (SD) (Week 6): 53.23 mg/mg
Change from baseline in UGCR, Median (Week 6): 50.85 mg/mg
Change from baseline in adiponectin, ANCOVA LS mean (SE) (Week 6): 0.22 µg/mL
Change from baseline in adiponectin, Mean (SD) (Week 6): 0.31 µg/mL
Change from baseline in adiponectin, Median (Week 6): 0.48 µg/mL
Change from baseline in leptin, ANCOVA LS mean (SE) (Week 6): -2.82 ng/mL
Change from baseline in leptin, Mean (SD) (Week 6): -2.48 ng/mL
Change from baseline in leptin, Median (Week 6): -1.13 ng/mL
HOMA-IR, Mean (SD) (Week 6): 1.96
HOMA-IR, Median (Week 6): 1.62
HOMA-β, Mean (SD) (Week 6): 50.65
HOMA-β, Median (Week 6): 40.10
Leptin, Mean (SD) (Week 6): 8.61 ng/mL
Leptin, Median (Week 6): 5.75 ng/mL
UACR, Mean (SD) (Week 6): 32.12 g/kg
UACR, Median (Week 6): 11.30 g/kg
UGCR, Mean (SD) (Week 6): 54.67 mg/mg
UGCR, Median (Week 6): 51.06 mg/mg
Change from baseline in HOMA-IR, ANCOVA LS mean difference (Week 6): −1.81
Change from baseline in HOMA-β, ANCOVA LS mean difference (Week 6): 3.30
Change from baseline in UACR, ANCOVA LS mean difference (Week 6): 7.96 g/kg
Change from baseline in UGCR, ANCOVA LS mean difference (Week 6): 52.97 mg/mg
Change from baseline in adiponectin, ANCOVA LS mean difference (Week 6): 0.26 µg/mL
Change from baseline in leptin, ANCOVA LS mean difference (Week 6): -2.89 ng/mL
Adiponectin, Mean (SD) (Week 12): 8.57 µg/mL
Adiponectin, Median (Week 12): 6.59 µg/mL
Change from baseline in HOMA-IR, ANCOVA LS mean (SE) (Week 12): −1.60
Change from baseline in HOMA-IR, Mean (SD) (Week 12): −1.50
Change from baseline in HOMA-IR, Median (Week 12): −1.09
Change from baseline in HOMA-β, ANCOVA LS mean (SE) (Week 12): 13.51
Change from baseline in HOMA-β, Mean (SD) (Week 12): 12.44
Change from baseline in HOMA-β, Median (Week 12): 7.15
Change from baseline in UACR, ANCOVA LS mean (SE) (Week 12): -4.45 g/kg
Change from baseline in UACR, Mean (SD) (Week 12): -7.76 g/kg
Change from baseline in UACR, Median (Week 12): 0.60 g/kg
Change from baseline in UGCR, ANCOVA LS mean (SE) (Week 12): 52.58 mg/mg
Change from baseline in UGCR, Mean (SD) (Week 12): 52.43 mg/mg
Change from baseline in UGCR, Median (Week 12): 51.21 mg/mg
Change from baseline in adiponectin, ANCOVA LS mean (SE) (Week 12): 0.94 µg/mL
Change from baseline in adiponectin, Mean (SD) (Week 12): 0.78 µg/mL
Change from baseline in adiponectin, Median (Week 12): 0.65 µg/mL
Change from baseline in leptin, ANCOVA LS mean (SE) (Week 12): -2.35 ng/mL
Change from baseline in leptin, Mean (SD) (Week 12): -2.38 ng/mL
Change from baseline in leptin, Median (Week 12): -1.15 ng/mL
HOMA-IR, Mean (SD) (Week 12): 1.97
HOMA-IR, Median (Week 12): 1.53
HOMA-β, Mean (SD) (Week 12): 58.83
HOMA-β, Median (Week 12): 42.30
Leptin, Mean (SD) (Week 12): 8.78 ng/mL
Leptin, Median (Week 12): 6.26 ng/mL
UACR, Mean (SD) (Week 12): 20.43 g/kg
UACR, Median (Week 12): 11.15 g/kg
UGCR, Mean (SD) (Week 12): 53.85 mg/mg
UGCR, Median (Week 12): 51.70 mg/mg
Change from baseline in HOMA-IR, ANCOVA LS mean difference (Week 12): −1.72
Change from baseline in HOMA-β, ANCOVA LS mean difference (Week 12): 12.09
Change from baseline in UACR, ANCOVA LS mean difference (Week 12): -15.16 g/kg
Change from baseline in UGCR, ANCOVA LS mean difference (Week 12): 51.21 mg/mg
Change from baseline in adiponectin, ANCOVA LS mean difference (Week 12): 0.67 µg/mL
Change from baseline in leptin, ANCOVA LS mean difference (Week 12): -3.17 ng/mL
Adiponectin, Mean (SD) (Week 18): 8.62 µg/mL
Adiponectin, Median (Week 18): 6.76 µg/mL
Change from baseline in HOMA-IR, ANCOVA LS mean (SE) (Week 18): −1.55
Change from baseline in HOMA-IR, Mean (SD) (Week 18): −1.48
